For experiment [1], the system named is dexmedetomidine induced dogs. The experiment can be described thus: Dexmedetomidine (DEX) induced beagle dog model of hypertension. The format is in vivo. From the text:
Four adult beagle dogs of both sex and weighted around 10 kg were chosen for the acute studies after a preliminary qualitative electrocardiogram/ECG, clinical pathology and physical examination. Upon arrival at the laboratory, the dogs were weighed and acclimated for a period of one week. Lab Diet certified canine diet #5007, PMI Nutrition International Inc was made available ad libitum to all dogs except during fasting periods. The dogs were surgically implanted with a pressure transducer equipped telemetry transmitter under sodium pentobarbitone anesthesia. The transmitter assembly was secured internally, the fluid-filled catheter was placed into an appropriate artery.
In the acute studies, the test compounds 3b and 5b at different doses (dosing sequences provided in Table B7 for compound 3b and Table B8 for compound 5b) was administered by oral gavage, 30 minutes prior to intravenous dexmedetomidine (5 μg/kg) challenge. Dexmedetomidine administration was enabled by prior placement of a peripheral intravenous line. The same four dogs were received all four treatments in the order noted in the table below, with at least a 3-day washout period between treatments.
For the chronic study mode (see Table B9), the test compound 3b at 3 doses was administered by oral gavage once on day 1 and then twice/day on days 2 to 14, and finally once on day 15. The dexmedetomidine was administered on day-4 to check its effectiveness in inducing blood pressure, and once following the morning dose of compound 3b or vehicle on days 2, 7 and 14. Blood pressure and heart rate data were collected 1 h prior & 4 h post-morning dose on days 1, 2, 7, 14 and 15 to allow the appropriate data comparisons. Blood aliquots were saved at 4 h post-morning dose for exposure determination.
In both acute and chronic studies, dogs were weighed before dosing. Cardiovascular evaluations at each dose of test compound were collected with animals gently restrained in a sling. […] The dogs were monitored continuously for 3-4 hours subsequent to test compound administration and summarized in 5-minute bins. […]

For experiment [2], the system named is conscious New Zealand White rabbits. The experiment can be described thus: Blood pressure in conscious rabbits. The format is in vivo, rabbit. On the procedure:
Methods: Four adult New Zealand White rabbits of both sexes were chosen for these studies. […] To unveil peripheral effects of Compound 3b, two sets of acute studies were conducted in rabbits. […] A single intravenous bolus dose at 3 mg/kg was given and a time-course study was conducted in the second set of studies. Systolic, […], mean and […] blood pressures were recorded in both the studies. […] In a separate set of studies, Clonidine (positive control) was tested where all experimental procedures including dose-regimen were identical to that of the studies with […].

Experiment [3] deals with T1, human recombinant adrenergic α1D receptor (Homo sapiens, UniProt P25100).
T1 construct: expressed in transfected cells; host or cells: HEK-293
T1 sequence (P25100 1-572): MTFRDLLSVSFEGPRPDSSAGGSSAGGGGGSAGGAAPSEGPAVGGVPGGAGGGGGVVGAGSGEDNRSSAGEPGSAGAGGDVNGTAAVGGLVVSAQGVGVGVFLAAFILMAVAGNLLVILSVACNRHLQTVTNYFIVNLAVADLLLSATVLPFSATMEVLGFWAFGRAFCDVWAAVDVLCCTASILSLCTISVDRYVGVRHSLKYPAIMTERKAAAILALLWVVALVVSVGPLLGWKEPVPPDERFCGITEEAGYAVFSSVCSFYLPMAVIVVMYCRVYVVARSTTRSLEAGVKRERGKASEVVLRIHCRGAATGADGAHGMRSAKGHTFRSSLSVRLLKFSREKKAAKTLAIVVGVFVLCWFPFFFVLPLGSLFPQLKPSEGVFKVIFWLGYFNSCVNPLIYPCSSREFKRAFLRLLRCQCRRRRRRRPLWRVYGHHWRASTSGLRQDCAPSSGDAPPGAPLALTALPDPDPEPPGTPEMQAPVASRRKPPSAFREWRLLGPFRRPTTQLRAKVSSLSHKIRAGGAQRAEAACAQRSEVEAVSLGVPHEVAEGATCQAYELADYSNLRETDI
The experiment can be described thus: Radioligand binding, adrenergic α1D ([3H]Prazosin).

In experiment [4] the target is T2, human Adrenergic a2A receptor (Homo sapiens, UniProt P08913).
T2 construct: purchased Euroscreen FAST-006G
T2 sequence (P08913 1-465): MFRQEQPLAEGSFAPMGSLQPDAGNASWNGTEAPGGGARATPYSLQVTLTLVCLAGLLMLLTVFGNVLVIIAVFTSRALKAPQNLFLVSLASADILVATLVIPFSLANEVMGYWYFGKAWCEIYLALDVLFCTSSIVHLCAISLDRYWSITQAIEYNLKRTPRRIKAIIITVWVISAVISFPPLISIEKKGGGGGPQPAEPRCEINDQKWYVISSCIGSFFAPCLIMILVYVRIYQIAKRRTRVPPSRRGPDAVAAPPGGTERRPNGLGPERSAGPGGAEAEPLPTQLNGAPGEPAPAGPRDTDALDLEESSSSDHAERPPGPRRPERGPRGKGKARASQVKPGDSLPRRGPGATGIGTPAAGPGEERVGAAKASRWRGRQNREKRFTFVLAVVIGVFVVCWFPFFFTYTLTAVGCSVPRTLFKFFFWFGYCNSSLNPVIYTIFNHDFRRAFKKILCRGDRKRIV
Briefly: Inverse agonist activity, GTPg35S binding functional assay (FAST-006G). As to conditions: dose-response, duplicates (FIG. 28). The format is biochemical. How it is done:
SPA 35S-GTPgS and Radioligand Binding experiments were conducted with Euroscreen membrane preparations. Compound was tested for inverse agonist activity at the human Adrenergic a2A receptor using GTPg35S binding functional assay (FAST-006G) in dose-response and in duplicates.
(Binding of GTPγS marks nucleotide exchange on a G protein.)

Where [5] appears, read: dexmedetomidine (5 μg/kg i.v.) induced dogs, acute studies, oral gavage 30 min before challenge.

For `Cc1ccc2c(c1)c1c(n2CC(O)c2ccncc2)CCN(C)C1` (single isomer, unassigned) [3b], the systolic blood pressure result in experiment [1] (setting [5]) is reported as “dose-dependently reduced systolic blood pressure”; in experiment [1] (dexmedetomidine induced dogs, chronic study, oral b.i.d., day 2, 7 and 14), “dose dependently reduced systolic blood pressure”. The “dose that produced 80% of the maximum drop in blood pressure” value in experiment [2] (i.v. cumulative dose-response study) was 3 mg/kg. In addition, the heart rate entry in experiment [2] (i.v. cumulative dose-response study (FIG. 26, fourth panel)) is on record as “tachycardia”. For the same compound, the “maximum arterial blood pressure drop” value in experiment [2] (i.v. cumulative dose-response study, Compound 3b maximum at 10 mg/kg) was −11.6 mmHg. In addition, the “duration of arterial blood pressure effect” value in experiment [2] (single i.v. bolus dose at 3 mg/kg, 3 hours data collection) is listed as “stable from 90 to 180 minutes”. The “drop in arterial blood pressure” value in experiment [2] (single i.v. bolus dose at 3 mg/kg, time-course study (FIG. 27)) is recorded as ~−6 mmHg. The Ki (commonly the equilibrium dissociation constant of an inhibitor or competing ligand from its target) in experiment [3] turned out to be 258 nM.

With `Cc1ccc2c(c1)c1c(n2CC(O)c2ccncc2)CCN2CCCC12` (single isomer, unassigned) [129d], in experiment [4], the inverse agonist activity result is on record as “showed inverse agonist activity”.

In the case of `Cc1ccc2c(c1)c1c(n2CC(C)(O)c2cccnc2)CCN(C)C1` (single isomer, unassigned) [5b, 1-(1,2,3,4-tetrahydro-2,8-dimethylpyrido[4,3-b]indol-5-yl)-2-(pyridin-3-yl)propan-2-ol], the systolic blood pressure entry in experiment [1] (setting [5]) is “dose-dependently reduced systolic blood pressure”.

Values taken from patent US8791132B2, “Compounds and methods for treatment of hypertension” (Medivation Technologies, Inc., priority 2011, dated 2014).
